Columns and labels:
Type in all cases: cell-based, Influenza A
A/WSN/33 Y52H = tested on: A/WSN/33 Y52H
A/WSN/33 Y289H = tested on: A/WSN/33 Y289H
A/WSN/33 N309T = tested on: A/WSN/33 N309T
A/WSN/33 N309K = tested on: A/WSN/33 N309K

What does the source list for `COc1ccccc1-c1noc(C)c1C(=O)N1CCN(c2ccc([N+](=O)[O-])cc2Cl)CC1` [Compound B]?
EC50 (A/WSN/33 Y52H): 8.15 µM; EC50 (A/WSN/33 Y289H): > 20 µM; EC50 (A/WSN/33 N309T): 3.5 µM; EC50 (A/WSN/33 N309K): > 20 µM

What does the source list for `Cc1cc(Br)cnc1N1CCN(C(=O)c2c(-c3ccccc3Cl)noc2C)CC1` [Compound D]?
EC50 (A/WSN/33 Y52H): > 20 µM; EC50 (A/WSN/33 Y289H): > 20 µM; EC50 (A/WSN/33 N309T): > 20 µM; EC50 (A/WSN/33 N309K): > 20 µM
